Patent publication US8598193B2, “Polycyclic agents for the treatment of respiratory syncytial virus infections” (Biota Scientific Management Pty Ltd., priority 2003, dated 2013)
≈ marks a conversion by molar mass, not a printed value.

test system: RSV A2; test: RSV cotton rat model; assay type: in vivo; conditions: oral 100 mg/kg/day, lung RSV titres by plaque assay four days after inoculation
Experimental: Method S: RSV Cotton Rat Model
The cotton rat model was performed essentially as described in the literature (Wyde et al, Antiviral Res. 2003, 60, 221). Briefly, cotton rats weighing 50-100 g were lightly anesthetized with isoflurane and dosed orally with 100 mg/kg/day of compound or vehicle control. Viral infection followed 2 hours post-treatment in similarly anesthetized rats by intranasal instillation with approximately 1000 TCID50 of RSV A2 per animal. Four days after virus inoculation, each cotton rat was sacrificed and their lungs removed and RSV titres determined by plaque assay.

Row | SMILES | % Reduction of virus Control [%]
1 | O=C(c1ccc(F)nc1)N1CCN2C(=O)c3ccccc3C12c1ccc(Cl)cc1 (stereo not shown) [Compound 306] | 72
2 | O=C(c1ccc(F)cc1)N1CCN2C(=O)c3ccncc3C12c1ccc(Cl)cc1 (stereo not shown) [Compound 336] | 96
3 | O=C(c1ccc(F)cc1)N1CCN2C(=O)c3cc[n+]([O-])cc3C12c1ccc(Cl)cc1 (stereo not shown) [Compound 352] | 68

target: T1, RSV A2 F glycoprotein (membrane-anchored full-length F) in 293 cells (Human respiratory syncytial virus A, UniProt P03420); test: RSV fusion assay (syncytium formation assay); assay type: cell-based; conditions: not given
T1 construct: A membrane-anchored full-length F was generated essentially according to the method described therein; expressed in transfected cells; host or cells: 293 cells
T1 sequence (P03420 26-109): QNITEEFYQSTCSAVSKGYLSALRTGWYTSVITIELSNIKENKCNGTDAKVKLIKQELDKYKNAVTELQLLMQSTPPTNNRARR
T1 sequence (P03420 137-574): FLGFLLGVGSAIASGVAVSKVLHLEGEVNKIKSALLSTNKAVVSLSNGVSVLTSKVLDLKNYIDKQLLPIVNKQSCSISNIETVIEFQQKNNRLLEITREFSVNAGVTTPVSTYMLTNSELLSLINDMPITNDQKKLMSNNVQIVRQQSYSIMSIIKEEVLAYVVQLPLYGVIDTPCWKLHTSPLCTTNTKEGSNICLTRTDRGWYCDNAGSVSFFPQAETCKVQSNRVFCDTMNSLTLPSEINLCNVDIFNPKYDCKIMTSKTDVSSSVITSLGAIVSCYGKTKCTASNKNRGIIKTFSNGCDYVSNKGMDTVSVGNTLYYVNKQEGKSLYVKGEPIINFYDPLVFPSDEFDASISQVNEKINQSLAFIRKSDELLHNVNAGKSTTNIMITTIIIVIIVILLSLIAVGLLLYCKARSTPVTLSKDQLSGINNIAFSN
Experimental: Method R: RSV Fusion Assay
Selected compounds of the invention were tested for their ability to inhibit the essential fusion processes of the respiratory syncytial virus.
Single-stranded synthetic DNA oligonucleotides encoding the portions of RSV A2 F glycoprotein incorporating optimal codons and without potential poly(A) addition or splice sites were generated synthetically (Mason et al, WO0242326). A membrane-anchored full-length F was generated essentially according to the method described therein and in Morton et al, Virology, 2003, 311, 275.
Fusion activity of the RSV-F constructs was measured in 293 cells essentially according to the method described in Morton et al, Virology, 2003, 311, 275. For example: cells in six well plates at approximately 80% confluency were transfected by adding plasmid DNA (2 μg/well) carrying the constructs of interest in CaPO4 solution for 4 hours. After glycerol shock and wash, the transfected cells were trypsinized and 1.5×10^4 cells/well added to 96-well plates containing half-log serial dilutions of the test compound. Syncytium formation was evaluated by visual inspection and quantified at 48 hours post-transfection by addition of 20 μL of CellTiter 96 One Solution (Promega) followed by incubation for 4 hours at 37° C. The colour reaction was then stopped by addition of 25 μL 10% SDS to each well and absorbance measured at 492 nm. The compound concentration that reduced absorbance relative to untreated control cultures by 50% (EC50) was calculated using an Excel curve fitting program.

Row | SMILES | EC50 [µM]
4 | O=C(c1ccc(F)cc1)N1CCN2C(=O)c3ccccc3C12c1ccc(Cl)cc1 (stereo not shown) [Compound 12] | 3.69 to 5.53
5 | CCC(=O)N1CCN2C(=O)c3ccccc3C12c1ccc(Cl)cc1 (stereo not shown) [Compound 16] | 2.2 to 4.4
6 | COc1ccc(CC(=O)N2CCN3C(=O)c4ccccc4C23c2ccc(C)cc2)cc1 (stereo not shown) [Compound 66] | 1.82 to 3.64
7 | O=C(c1ccc(F)cc1)N1CCN2C(=O)c3ccncc3C12c1ccc(Cl)cc1 (stereo not shown) [Compound 336] | < 1.84

test system: RSV A2; test: RSV antiviral cytopathic effect (CPE) assay, MTT readout; assay type: cell-based; conditions: human respiratory syncytial virus, HEp-2, 120 h, read-out: Activity Range (RSV A2 antiviral EC50), compounds of Table 2
Experimental: Method Q: RSV Antiviral Assay Protocol
Compounds of the invention were tested for their antiviral activity against respiratory syncytial virus. Cytopathic effect (CPE) assays were performed essentially as described in the literature (see for example Watanabe et al, 1. Virological Methods, 1994, 48, 257). Serial dilutions of the test compounds were made in assay medium. HEp2 cells (1.0×10^4 cells/well) were infected with RSV at a low multiplicity of infection (e.g. RSV A2 at an moi of 0.01) and 100 μL added to cultures assessing antiviral activity and cells without virus added to those assessing compound cytotoxicity. Assays were incubated for approximately 5 days at 37° C. in a 5% CO2 atmosphere. The extent of CPE was determined via metabolism of the vital dye 3-(4,5-dimethylthiaxol-2-yl)-2,5-diphenyltetrazolium bromide (MTT). A 3 mg/ml stock of MTT was made in assay medium and 100 μL added to each well, taking the final MTT concentration to […]. After 2 hours incubation at 37° C., the media-MTT solution was removed and 200 μL of isopropanol was added to dissolve the vital dye crystals. Plates were shaken and the absorbance read at 540 nm. The compound concentrations that inhibited CPE by 50% (EC50) and developed cytotoxicity (CC50) were calculated using an Excel curve fitting program.

Row | SMILES | EC50 [µg/mL]
8 | O=C(c1ccc(F)cc1)N1CCN2C(=O)c3ccccc3C12c1ccc(Cl)cc1 (stereo not shown) [Compound 12] | 0.1 to 0.25 (≈ 0.246 to 0.614 µM)

same assay, conditions: human respiratory syncytial virus, HEp-2, 120 h; RSV A2 in HEp2 cells, CPE assay, MTT, approx. 5 days; read-out: Activity Range (RSV A2 antiviral EC50), compounds of Table 2

Row | SMILES | EC50 [µg/mL]
9 | COc1ccc(CC(=O)N2CCN3C(=O)c4ccccc4C23c2ccc(C)cc2)cc1 (stereo not shown) [Compound 66] | 0.1 to 0.25 (≈ 0.242 to 0.606 µM)
10 | O=C(c1ccc(F)nc1)N1CCN2C(=O)c3ccccc3C12c1ccc(Cl)cc1 (stereo not shown) [Compound 306] | < 0.1

same assay, conditions: human respiratory syncytial virus, HEp-2, 120 h; RSV A2 in HEp2 cells, CPE assay, MTT, approx. 5 days; read-out: Activity Range (RSV A2 antiviral EC50), compounds of Table 3

Row | SMILES | EC50 [µg/mL]
11 | O=C(c1ccc(F)cc1)N1CCN2C(=O)c3ccncc3C12c1ccc(Cl)cc1 (stereo not shown) [Compound 336] | 0.1 to 0.25 (≈ 0.245 to 0.613 µM)
12 | O=C(c1ccc(F)cc1)N1CCN2C(=O)c3cc[n+]([O-])cc3C12c1ccc(Cl)cc1 (stereo not shown) [Compound 352] | 0.1 to 0.25 (≈ 0.236 to 0.59 µM)
13 | O=C1c2ccncc2C2(c3ccc(Cl)cc3)N1CCN2C(=O)c1ccnn1-c1ccccc1 (stereo not shown) [Compound 423] | 0.25 to 1 (≈ 0.548 to 2.19 µM)
14 | O=C(c1ccsc1)N1CCN2C(=O)c3ccncc3C12c1ccc(Cl)cc1 (stereo not shown) [Compound 430] | < 0.1
15 | O=C(c1cccs1)N1CCN2C(=O)c3ccncc3C12c1ccc(Cl)cc1 (stereo not shown) [Compound 431] | < 0.1
16 | O=C(c1csc([N+](=O)[O-])c1)N1CCN2C(=O)c3ccncc3C12c1ccc(Cl)cc1 (stereo not shown) [Compound 434] | 0.25 to 1 (≈ 0.567 to 2.27 µM)
17 | COc1c(C(=O)N2CCN3C(=O)c4ccncc4C32c2ccc(Cl)cc2)csc1Cl (stereo not shown) [Compound 436] | 0.1 to 0.25 (≈ 0.217 to 0.543 µM)
18 | O=C(c1ccc(Br)s1)N1CCN2C(=O)c3ccncc3C12c1ccc(Cl)cc1 (stereo not shown) [Compound 437] | 0.25 to 1 (≈ 0.527 to 2.11 µM)
19 | COc1c(C(=O)N2CCN3C(=O)c4ccncc4C32c2ccc(Cl)cc2)csc1Br (stereo not shown) [Compound 438] | 0.25 to 1 (≈ 0.495 to 1.98 µM)
20 | COc1cscc1C(=O)N1CCN2C(=O)c3ccncc3C12c1ccc(Cl)cc1 (stereo not shown) [Compound 441] | 0.1 to 0.25 (≈ 0.235 to 0.587 µM)
21 | O=C1c2ccncc2C2(c3ccc(Cl)cc3)N1CCN2C(=O)c1sccc1Cl (stereo not shown) [Compound 442] | < 0.1
22 | Cc1nc(C(=O)N2CCN3C(=O)c4ccncc4C23c2ccc(Cl)cc2)cs1 (stereo not shown) [Compound 444] | 0.1 to 0.25 (≈ 0.243 to 0.608 µM)
23 | O=C1c2ccncc2C2(c3ccc(Cl)cc3)N1CCN2C(=O)c1sccc1Br (stereo not shown) [Compound 445] | < 0.1
24 | O=C(c1ccno1)N1CCN2C(=O)c3ccncc3C12c1ccc(Cl)cc1 (stereo not shown) [Compound 448] | 0.1 to 0.25 (≈ 0.263 to 0.657 µM)
25 | CCOc1ccsc1C(=O)N1CCN2C(=O)c3ccncc3C21c1ccc(Cl)cc1 (stereo not shown) [Compound 449] | < 0.1
26 | Cc1csc(C(=O)N2CCN3C(=O)c4ccncc4C32c2ccc(Cl)cc2)c1Cl (stereo not shown) [Compound 450] | 0.1 to 0.25 (≈ 0.225 to 0.563 µM)
27 | O=C(c1cccc(Cl)n1)N1CCN2C(=O)c3ccncc3C12c1ccc(Cl)cc1 (stereo not shown) [Compound 453] | < 0.1
28 | CSc1ncc(Cl)c(C(=O)N2CCN3C(=O)c4ccncc4C32c2ccc(Cl)cc2)n1 (stereo not shown) [Compound 454] | 0.1 to 0.25 (≈ 0.212 to 0.529 µM)

Row | SMILES | EC50 [µg/mL]
29 | O=C(c1ccccn1)N1CCN2C(=O)c3ccncc3C12c1ccc(Cl)cc1 (stereo not shown) [Compound 455] | 0.25 to 1 (≈ 0.64 to 2.56 µM)
30 | O=C(c1csnn1)N1CCN2C(=O)c3ccncc3C12c1ccc(Cl)cc1 (stereo not shown) [Compound 456] | < 0.1
31 | O=C(c1csc(-c2ccncc2)n1)N1CCN2C(=O)c3ccncc3C12c1ccc(Cl)cc1 (stereo not shown) [Compound 457] | 0.25 to 1 (≈ 0.527 to 2.11 µM)
32 | Cc1nc(-c2cnccn2)sc1C(=O)N1CCN2C(=O)c3ccncc3C21c1ccc(Cl)cc1 (stereo not shown) [Compound 458] | 0.1 to 0.25 (≈ 0.205 to 0.511 µM)
33 | O=C1c2ccncc2C2(c3ccc(Cl)cc3)N1CCN2C(=O)c1nsc(Cl)c1Cl (stereo not shown) [Compound 461] | < 0.1
34 | COc1ccc(-c2ocnc2C(=O)N2CCN3C(=O)c4ccncc4C32c2ccc(Cl)cc2)cc1 (stereo not shown) [Compound 462] | < 0.1
35 | O=C1c2ccncc2C2(c3ccc(Cl)cc3)N1CCN2C(=O)c1ncoc1-c1ccccc1 (stereo not shown) [Compound 463] | < 0.1
36 | CC(C)c1nnsc1C(=O)N1CCN2C(=O)c3ccncc3C21c1ccc(Cl)cc1 (stereo not shown) [Compound 464] | 0.25 to 1 (≈ 0.568 to 2.27 µM)
37 | COc1ccc(-c2cc(C(=O)N3CCN4C(=O)c5ccncc5C34c3ccc(Cl)cc3)on2)cc1 (stereo not shown) [Compound 465] | 0.25 to 1 (≈ 0.513 to 2.05 µM)
38 | Cn1cc(C(=O)N2CCN3C(=O)c4ccncc4C32c2ccc(Cl)cc2)c(C(F)(F)F)n1 (stereo not shown) [Compound 467] | < 0.1
39 | Cc1nc(-c2ccccc2)sc1C(=O)N1CCN2C(=O)c3ccncc3C21c1ccc(Cl)cc1 (stereo not shown) [Compound 468] | 0.25 to 1 (≈ 0.513 to 2.05 µM)
40 | CC(C)c1sc(Cl)nc1C(=O)N1CCN2C(=O)c3ccncc3C21c1ccc(Cl)cc1 (stereo not shown) [Compound 474] | 0.1 to 0.25 (≈ 0.211 to 0.528 µM)
41 | O=C(c1ccc(F)nc1)N1CCN2C(=O)c3cc[n+]([O-])cc3C12c1ccc(Cl)cc1 (stereo not shown) [Compound 480] | < 0.1
42 | O=C(c1cncnc1)N1CCN2C(=O)c3ccncc3C12c1ccc(Cl)cc1 (stereo not shown) [Compound 481] | 0.25 to 1 (≈ 0.638 to 2.55 µM)
43 | O=C(c1csc(-c2ccc[n+]([O-])c2)n1)N1CCN2C(=O)c3cc[n+]([O-])cc3C12c1ccc(Cl)cc1 (stereo not shown) [Compound 482] | < 0.1
44 | O=C(c1cscn1)N1CCN2C(=O)c3ccncc3C12c1ccc(Cl)cc1 (stereo not shown) [Compound 483] | < 0.1
45 | Cc1nonc1C(=O)N1CCN2C(=O)c3ccncc3C21c1ccc(Cl)cc1 (stereo not shown) [Compound 484] | < 0.1

test system: RSV A2; test: RSV Balb/c mouse model; assay type: in vivo; conditions: female Balb/c mice, compound orally 6 hours preinfection, lung RSV titres by plaque assay three days after virus inoculation
Experimental: Method T: RSV Balb/c Mouse Model
The mouse model was performed essentially as described by Clanci et al (Antimicrobial Agents and Chemotherapy. 2004, 48, 413). Briefly, eight week old female Balb/c mice were weighed, anesthetized intraperitoneally with Avertin™ and compound or vehicle administered orally 6 hours preinfection. Mice were inoculated intranasally with approximately 10000 TCID50 RSV A2 per animal. Three days after virus inoculation, each mouse was sacrificed and their lungs removed and RSV titres determined by plaque assay.

Row | SMILES | % Reduction of virus Control [%]
46 | O=C(c1ccc(F)cc1)N1CCN2C(=O)c3ccncc3C12c1ccc(Cl)cc1 (stereo not shown) [Compound 336] | 80
